Measured values taken from paper PMC7093416, “Selective USP7 inhibition elicits cancer cell killing through a p53-dependent mechanism” (Scientific Reports, 2020).

Tested on: panel of 484 cancer cell lines
Experiment: PRISM cancer cell line profiling, 5 days
Assay type: cell-based
Set-up: AUC: unit not given beside the values
Method: Cancer cell line profiling was performed using the Broad’s PRISM platform. Cell treatment and data analysis were performed as described in Yu et al[42]. Raw Luminex signal was converted to AUC values for each cell line as described. The resulting AUC profile for each compound was modeled against DepMap using the limma package in R[71]. Because hotspot mutation analysis was performed against DepMap, TP53 annotations in Fig. 6c,d are directly from DepMap.

## CN1CCN(CCC(=O)Nc2ccc3c(=O)n(CC4(O)CCN(C(=O)[C@@H](CCCNC(=O)c5ccc6c(Cl)c7c(nc6c5)CCCC7)Cc5ccccc5)CC4)cnc3c2)CC1 [XL177A]
MG63_BONE
  AUC: 1.147
MHHES1_BONE
  AUC: 0.9854
MIAPACA2_PANCREAS
  AUC: 0.7815
MKN1_STOMACH
  AUC: 1.271
MKN7_STOMACH
  AUC: 0.8494
MKN45_STOMACH
  AUC: 0.5723
MKN74_STOMACH
  AUC: 0.9306
MON_SOFT_TISSUE
  AUC: 0.2802
MPP89_PLEURA
  AUC: 1.207
MSTO211H_PLEURA
  AUC: 0.9069
NB1_AUTONOMIC_GANGLIA
  AUC: 0.8293
NCIH23_LUNG
  AUC: 0.7147
NCIH28_PLEURA
  AUC: 1.117
NCIH226_LUNG
  AUC: 0.8849
NCIH292_LUNG
  AUC: 1.012
NCIH322_LUNG
  AUC: 0.9977
NCIH358_LUNG
  AUC: 0.842
NCIH446_LUNG
  AUC: 1.125
NCIH460_LUNG
  AUC: 1.082
NCIH520_LUNG
  AUC: 1.357
NCIH522_LUNG
  AUC: 0.9146
NCIH596_LUNG
  AUC: 0.8559
NCIH650_LUNG
  AUC: 0.8175
NCIH661_LUNG
  AUC: 1.081
NCIH727_LUNG
  AUC: 1.196
NCIH747_LARGE_INTESTINE
  AUC: 0.9621
NCIH838_LUNG
  AUC: 0.9473
NCIH841_LUNG
  AUC: 0.967
NCIH1048_LUNG
  AUC: 1.077
NCIH1299_LUNG
  AUC: 1.101
NCIH1339_LUNG
  AUC: 0.9923
NCIH1355_LUNG
  AUC: 0.948
NCIH1373_LUNG
  AUC: 0.8577
NCIH1435_LUNG
  AUC: 1.156
NCIH1437_LUNG
  AUC: 0.9262
NCIH1563_LUNG
  AUC: 0.7202
NCIH1568_LUNG
  AUC: 0.8953
NCIH1573_LUNG
  AUC: 1.235
NCIH1581_LUNG
  AUC: 0.9829
NCIH1623_LUNG
  AUC: 0.9673
NCIH1648_LUNG
  AUC: 0.9409
NCIH1650_LUNG
  AUC: 0.8271
NCIH1651_LUNG
  AUC: 1.042
NCIH1693_LUNG
  AUC: 0.9884
NCIH1703_LUNG
  AUC: 1.041
NCIH1792_LUNG
  AUC: 1.0161
NCIH1793_LUNG
  AUC: 1.096
NCIH1838_LUNG
  AUC: 0.9778
NCIH1915_LUNG
  AUC: 0.9037
NCIH1944_LUNG
  AUC: 0.9736
NCIH1975_LUNG
  AUC: 0.923
NCIH2009_LUNG
  AUC: 0.7912
NCIH2023_LUNG
  AUC: 1.0442
NCIH2030_LUNG
  AUC: 1.09
NCIH2052_PLEURA
  AUC: 0.7196
NCIH2077_LUNG
  AUC: 1.06
NCIH2087_LUNG
  AUC: 0.9147
NCIH2110_LUNG
  AUC: 1.049
NCIH2122_LUNG
  AUC: 0.751
NCIH2126_LUNG
  AUC: 0.9474
NCIH2170_LUNG
  AUC: 1.032
NCIH2172_LUNG
  AUC: 1.068
NCIH2228_LUNG
  AUC: 0.9446
NCIH2347_LUNG
  AUC: 0.9414
NCIH2444_LUNG
  AUC: 0.981
NCIH2452_PLEURA
  AUC: 1.231
NCIN87_STOMACH
  AUC: 1.289
NUGC3_STOMACH
  AUC: 0.9146
NUGC4_STOMACH
  AUC: 0.8113
OAW42_OVARY
  AUC: 0.9061
OC314_OVARY
  AUC: 1.051
OC316_OVARY
  AUC: 1.076
OE19_OESOPHAGUS
  AUC: 1.108
OE21_OESOPHAGUS
  AUC: 0.9739
OE33_OESOPHAGUS
  AUC: 1.005
ONCODG1_OVARY
  AUC: 0.9121
ONS76_CENTRAL_NERVOUS_SYSTEM
  AUC: 0.7482
OSRC2_KIDNEY
  AUC: 0.9599
OUMS23_LARGE_INTESTINE
  AUC: 0.9942
OV56_OVARY
  AUC: 0.9082
OVCAR8_OVARY
  AUC: 1.07
OVISE_OVARY
  AUC: 0.8469
OVK18_OVARY
  AUC: 0.8349
OVSAHO_OVARY
  AUC: 0.9469
OVTOKO_OVARY
  AUC: 1.103
PANC1_PANCREAS
  AUC: 0.8692
PANC0203_PANCREAS
  AUC: 0.8971
PANC0327_PANCREAS
  AUC: 1.196
PANC0403_PANCREAS
  AUC: 1
PANC0813_PANCREAS
  AUC: 0.9365
PANC1005_PANCREAS
  AUC: 1.142
PATU8902_PANCREAS
  AUC: 1.125
PATU8988S_PANCREAS
  AUC: 1.237
PATU8988T_PANCREAS
  AUC: 0.9888
PC3_PROSTATE
  AUC: 0.9272
PC14_LUNG
  AUC: 0.8983
PECAPJ15_UPPER_AERODIGESTIVE_TRACT
  AUC: 0.8461
PECAPJ41CLONED2_UPPER_AERODIGESTIVE_TRACT
  AUC: 0.7551
PECAPJ49_UPPER_AERODIGESTIVE_TRACT
  AUC: 0.693
PK1_PANCREAS
  AUC: 1.009
PK45H_PANCREAS
  AUC: 1.081
PK59_PANCREAS
  AUC: 1.041
PLCPRF5_LIVER
  AUC: 1.069
PSN1_PANCREAS
  AUC: 0.9727
QGP1_PANCREAS
  AUC: 1.095
RCC10RGB_KIDNEY
  AUC: 1.14
RCM1_LARGE_INTESTINE
  AUC: 1.19
RD_SOFT_TISSUE
  AUC: 0.8902
RERFLCAD1_LUNG
  AUC: 1.191
RERFLCAD2_LUNG
  AUC: 1.139
RERFLCAI_LUNG
  AUC: 0.8829
RERFLCKJ_LUNG
  AUC: 0.8002
RERFLCMS_LUNG
  AUC: 1.045
RH30_SOFT_TISSUE
  AUC: 0.9309
RKN_SOFT_TISSUE
  AUC: 0.8534
RKO_LARGE_INTESTINE
  AUC: 0.7552
RL952_ENDOMETRIUM
  AUC: 0.9781
RMGI_OVARY
  AUC: 0.9543
RMUGS_OVARY
  AUC: 0.8888
RT4_URINARY_TRACT
  AUC: 1.356
RT112_URINARY_TRACT
  AUC: 1.227
